{
  "source": "paper PMC9413491",
  "about": "“A Novel and Cross-Species Active Mammalian INDY (NaCT) Inhibitor Ameliorates Hepatic Steatosis in Mice with Diet-Induced Obesity” (Metabolites, 2022)",
  "key": {"[1]": {"experiment": "Viability (PrestoBlue) / cytotoxicity in HepG2 cells", "format": "cell-based", "conditions": "human, parallel to fatty acid synthesis assay", "description": "We performed the fatty acid synthesis assay in HepG2 cells. We seeded cells into black clear-bottom 96-well plates (Corning 3340 cell plate) 75,000/well and incubated at 37 °C. After 16–24 h, we washed the plates once with 100 µL PBS (+CaCl2 +MgCl2) and added 50 µL assay medium ([…] containing 11 mM glucose, 10 mM HEPES, and 1 nM insulin) per well. Then, we applied test substances in assay medium (10 µL, 5% DMSO) and incubated for 20 min at 37 °C. Thereafter, we added 10 µL assay medium containing [14C] citrate (final concentration 50 µM) and PrestoBlue reagent (1× final concentration; Thermo Fisher Scientific, Waltham, MA, USA) and incubated for 180 min (37 °C, 5% CO2). We measured cell viability (ViewLux instrument, Perkin Elmer). We removed medium by vacuum aspiration and washed cells once with 100 µL PBS (+CaCl2 +MgCl2). We lysed cells with 50 µL lysis buffer (0.1 N NaOH, 0.1 % Triton X-100) and sealed plates with Tape Pads and vortexed. For the saponification reaction, we incubated plates for 16–24 h at 70 °C in a humidified environment. Then, we removed seals and added 200 µL 0.1 N HCl to neutralise the pH. We transferred 150 µL from each into corresponding wells of a 96-well Flash plate (Perkin Elmer) and sealed with TopSeal A (Perkin Elmer). […] We measured [14C] radioactivity (microbeta2, Perkin Elmer). […]"}, "DIO mice [2]": {"test_system": "DIO mice", "experiment": "7-day treatment of diet-induced obesity (DIO) mice", "format": "in vivo, mouse", "conditions": "15 mg/kg twice daily, 7 days", "description": "We performed in vivo testing in DIO mice (for 7- and 28-day treatment), an established model designed to study high-fat-diet-induced hepatic steatosis and associated cardiometabolic traits. We established DIO in four-week-old C57BL/6N male mice that were fed a high-fat diet (HFD, 60 kcal% fat, D12492; Research Diets, Inc.; New Brunswick, NJ, USA) until 11 weeks of age.\nMice were housed at a temperature of 22–24 °C, with a day/night cycle of 12/12 h (07:00-19:00–07:00) and had access to the appropriate diet and tap water ad libitum. Animals allocated to the pair-feeding group were fed the same amount of food as the corresponding treatment group had consumed the day before. Food was only withdrawn for overnight fasting on the penultimate study day before the section on the final day. We randomised groups of n = 12 for treatment and n = 8 for pair-feeding cage-wise according to random fed blood glucose levels and body weight before the study treatment was started. For all animals, the high-fat diet was started at the same age.\nWe treated DIO mice with the inhibitor or corresponding vehicle (5% DMSO/10% Cremophor® EL/85% water) twice a day at the same time by oral gavage according to their grouping (5, 15, and 50 mg/kg dose groups, and vehicle control groups). During the study, we measured body weight and blood glucose. We measured glucose concentrations in tail tip blood samples with the “Accu-Chek® Performa” glucometer (Roche, Basel, Switzerland, range <33.3 mmol/L). We determined random fed blood glucose and fasting blood glucose after overnight fasting.\nWe determined serum beta-hydroxybutyrate with a Beta-Hydroxybutyrate Assay kit, (Sigma-Aldrich, Cat.No. MAK041, St. Louis, MO, USA) following the manufacturer’s instructions. The sample was undiluted, and the volume was 5 µL.\nWe performed Western blots as described previously. Deviating from that protocol samples were heated for 5 min at 95 °C and blotting time was 1 h at 20 volts. For target protein detection, AMPK alpha (D63G4) Rabbit mAb (Cell Signaling Technology, Inc., Danvers, MA, USA; Cat. No. #5832/3; working dilution 1:1000) and Phospho-AMPK alpha (Thr172) (40H9) Rabbit mAb (Cell Signaling Technology, Inc.; Cat. No. #2535/16; working dilution 1:1000) were used; gel loading was controlled by anti-beta-actin (Sigma-Aldrich, Cat. No. A2228). We detected signals with the SuperSignal West Dura Extended Duration Substrate (Thermo Fisher Scientific; Cat. No. 34076, Waltham, MA, USA)."}, "[3]": {"test_system": "fatty acid synthesis in HepG2 cells", "experiment": "Fatty acid synthesis assay ([14C] citrate incorporation) in HepG2 cells", "format": "cell-based, human", "description": "We performed the fatty acid synthesis assay in HepG2 cells. We seeded cells into black clear-bottom 96-well plates (Corning 3340 cell plate) 75,000/well and incubated at 37 °C. After 16–24 h, we washed the plates once with 100 µL PBS (+CaCl2 +MgCl2) and added 50 µL assay medium ([…] containing 11 mM glucose, 10 mM HEPES, and 1 nM insulin) per well. Then, we applied test substances in assay medium (10 µL, 5% DMSO) and incubated for 20 min at 37 °C. Thereafter, we added 10 µL assay medium containing [14C] citrate (final concentration 50 µM) and PrestoBlue reagent (1× final concentration; Thermo Fisher Scientific, Waltham, MA, USA) and incubated for 180 min (37 °C, 5% CO2). We measured cell viability (ViewLux instrument, Perkin Elmer). We removed medium by vacuum aspiration and washed cells once with 100 µL PBS (+CaCl2 +MgCl2). We lysed cells with 50 µL lysis buffer (0.1 N NaOH, 0.1 % Triton X-100) and sealed plates with Tape Pads and vortexed. For the saponification reaction, we incubated plates for 16–24 h at 70 °C in a humidified environment. Then, we removed seals and added 200 µL 0.1 N HCl to neutralise the pH. We transferred 150 µL from each into corresponding wells of a 96-well Flash plate (Perkin Elmer) and sealed with TopSeal A (Perkin Elmer). We incubated plates for 4 h at 70 °C and for at least 3 h at room temperature in the dark. We measured [14C] radioactivity (microbeta2, Perkin Elmer). For control samples, we applied 50 mM unlabelled citrate or C75 (Sigma-Aldrich, St. Louis, MO, USA, C5490)."}, "DIO mice [4]": {"test_system": "DIO mice", "experiment": "7-day treatment of diet-induced obesity (DIO) mice", "format": "in vivo, mouse", "conditions": "15 mg/kg twice daily, 7 days, p < 0.001 pair-fed, p < 0.05 vehicle"}, "DIO mice [5]": {"test_system": "DIO mice", "experiment": "Short-term tolerability studies in the DIO mouse model", "format": "in vivo", "source_text": "Next, we tested the functional activity of ETG-5773 in vivo to establish whether the effects on in vitro citrate uptake and FAS were physiologically relevant. […] Therefore, we applied pair-fed control groups to explore the pharmacological actions on metabolism without interference from food-intake effects.\n[…] […] The potential for off-target effects on feeding behaviour provided the rational for including pair-fed control groups."}},
  "data": [
    {"smiles": "O=C(Nc1cc(Cl)cc(C(F)(F)F)c1)OCCC(F)(F)F", "note": "[ETG-5773]", "values": [
      {"measurement": "IC50 at 180 min", "setting": "[1]", "value": "> 50", "unit": "µM"},
      {"measurement": "Liver fat after seven-days treatment", "setting": "DIO mice [2]", "value": "not sufficient to significantly reduce liver fat"},
      {"measurement": "Ratio of phosphorylated AMPK to total AMPK in liver vs both control groups", "setting": "DIO mice [2]; Western blot, p < 0.01", "value": "AMPK activation"},
      {"measurement": "HOMA-IR change vs vehicle", "setting": "DIO mice [2]; numerically reduced, p = 0.24", "value": "−95", "unit": "%"},
      {"measurement": "Fasting serum insulin change vs vehicle", "setting": "DIO mice [2]; numerically reduced, p = 0.4", "value": "−91", "unit": "%"},
      {"measurement": "Body weight change vs vehicle control", "setting": "DIO mice [2]; p < 0.0001", "value": "−15", "unit": "%"},
      {"measurement": "Fasting blood glucose change vs vehicle", "setting": "DIO mice [2]; p < 0.0001", "value": "−45", "unit": "%"},
      {"measurement": "Reduction in fasting blood glucose vs pair-fed vehicle control", "setting": "DIO mice [2]; p < 0.0001", "value": 36, "unit": "%"},
      {"measurement": "Reduction in HOMA-IR vs pair-fed vehicle control", "setting": "DIO mice [2]; p < 0.05", "value": "> 95", "unit": "%"},
      {"measurement": "Reduction in fasting serum insulin vs pair-fed vehicle control", "setting": "DIO mice [2]; p < 0.05", "value": "> 95", "unit": "%"},
      {"measurement": "IC50 difference in fatty acid synthesis versus PF-06649298", "setting": "[3]; ETG-5773 compared to PF-06649298, HepG2", "value": "around 40 fold"},
      {"measurement": "IC50", "setting": "[3]; Homo sapiens, HepG2, [14C] citrate incorporation, read-out: IC50 fatty acid synthesis, HepG2", "value": 1, "unit": "µM"},
      {"measurement": "Plasma β-hydroxybutyrate (β-HBA) concentrations vs pair-fed and vehicle", "setting": "DIO mice [4]", "value": "significantly increased"},
      {"measurement": "Tolerability of the selected dose", "setting": "DIO mice [5]; 15 mg/kg twice daily", "value": "well tolerated"},
      {"measurement": "Food intake", "setting": "DIO mice [5]; preliminary short-term tolerability studies, DIO mouse model", "value": "reduced food intake"}
    ]}
  ]
}
